This note sets out measurements from ChEMBL document CHEMBL2146446, “3-Hydroxy-1-alkyl-2-methylpyridine-4(1H)-thiones: Inhibition of the Pseudomonas aeruginosa Virulence Factor LasB” (ACS Med Chem Lett, 2012).

SMILES strings stand for the structures. Calls of active or inactive are those of the source. The calls are words filed in the database; no cut-off is given here.

In one series the target is Elastase (Pseudomonas aeruginosa (strain ATCC 15692 / PAO1 / 1C / PRS 101 / LMG12228), UniProt P14756). Briefly: (§1) Antagonist activity at Pseudomonas aeruginosa LasB using Abz-Ala-Gly-Leu-Ala-p-Nitro-Benzyl-Amide as substrate incubated for 30 mins prior to substrate addition by FRET assay. It counts as functional.
Sequence of Elastase (P14756 whole entry): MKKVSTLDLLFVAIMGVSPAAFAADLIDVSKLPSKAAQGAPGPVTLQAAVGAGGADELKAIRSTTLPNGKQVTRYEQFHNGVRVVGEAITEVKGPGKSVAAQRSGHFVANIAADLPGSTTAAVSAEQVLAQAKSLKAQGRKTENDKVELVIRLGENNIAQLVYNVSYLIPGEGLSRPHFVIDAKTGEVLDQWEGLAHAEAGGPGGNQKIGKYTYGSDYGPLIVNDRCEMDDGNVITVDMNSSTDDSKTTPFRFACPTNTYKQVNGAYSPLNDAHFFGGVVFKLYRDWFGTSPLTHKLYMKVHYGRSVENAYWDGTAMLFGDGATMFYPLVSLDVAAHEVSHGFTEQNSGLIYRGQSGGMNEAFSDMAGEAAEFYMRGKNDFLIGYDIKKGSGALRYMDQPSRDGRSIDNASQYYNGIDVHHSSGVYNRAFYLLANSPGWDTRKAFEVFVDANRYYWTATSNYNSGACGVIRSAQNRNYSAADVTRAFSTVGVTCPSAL
Series [1] has as its target Elastase (Pseudomonas aeruginosa (strain ATCC 15692 / PAO1 / 1C / PRS 101 / LMG12228)) (UniProt P14756). The series is described as §1. It is filed as functional.
Series [2] can be described thus: Metabolic stability in tryptic soy broth assessed as decomposition at 50 uM after 48 hrs. It is filed as physicochemical.
Series [3] can be described thus: Metabolic stability in tryptic soy broth assessed as S-oxidation at 50 uM after 48 hrs. It is filed as physicochemical.
Series [4] concerns the target Elastase (Pseudomonas aeruginosa (strain ATCC 15692 / PAO1 / 1C / PRS 101 / LMG12228)) (UniProt P14756). Put plainly: Antagonist activity at Pseudomonas aeruginosa PA14 LasB assessed as inhibition of swarming at 25 uM after 16 hrs swarming motility assay relative to control. It is filed as functional.
A further series concerns Pseudomonas aeruginosa. Put plainly: Toxicity against Pseudomonas aeruginosa PA14 assessed as viability at 25 uM by spectrophotometry. It counts as organism-based. The note with it: read-out: Activity.

Sequence of Elastase (Pseudomonas aeruginosa (strain ATCC 15692 / PAO1 / 1C / PRS 101 / LMG12228)) (P14756 198-498 limits assumed): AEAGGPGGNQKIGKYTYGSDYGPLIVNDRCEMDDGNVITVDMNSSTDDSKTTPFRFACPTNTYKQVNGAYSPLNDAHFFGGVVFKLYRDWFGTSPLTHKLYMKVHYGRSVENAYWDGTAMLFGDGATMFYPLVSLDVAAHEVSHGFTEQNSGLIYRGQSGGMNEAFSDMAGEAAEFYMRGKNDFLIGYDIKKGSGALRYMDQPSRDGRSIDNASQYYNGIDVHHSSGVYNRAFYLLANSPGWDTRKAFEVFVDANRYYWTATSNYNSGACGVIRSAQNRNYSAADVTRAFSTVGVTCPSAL

In general, IC50 refers to the concentration needed to halve the response being measured. The molecule `COc1ccc(-c2ccc(Cn3ccc(=S)c(O)c3C)cc2)cc1` showed an IC50 at Elastase of 8.58 µM.

Take `CCc1c(O)c(=S)ccn1CC`: the Activity entry in series [1] is “Dose-dependent effect”.

In the case of `Cc1c(O)c(=S)ccn1C`, the Activity result in series [1] is “Dose-dependent effect”.

For the molecule `Cn1cccc(O)c1=S`, in series [1], the Activity result was “Dose-dependent effect”. Also, the IC50 at Elastase stood at 220 µM.

The molecule `Cc1c(O)c(=S)ccn1Cc1ccc(-c2ccc3c(c2)OCO3)cc1` registered an IC50 against Elastase of 3.58 µM.

Regarding `Cc1c(O)c(=S)ccn1Cc1ccc(-c2ccc(F)c(F)c2)cc1`, the Stability entry in series [2] and in series [3] was “Stable” in each case. For the same molecule, the outcome in series [4] was Active. In addition, the viability at 25 µM in the series on Pseudomonas aeruginosa is 95%. The same molecule gave an IC50 against Elastase of 3.34 µM.

Consider `Cc1c(O)c(=S)ccn1Cc1ccc(-c2ccc(Cl)cc2)cc1`, for which the half-inhibitory concentration (IC50) against Elastase is 5.27 µM.

`O=C(Cc1ccccc1)NO` [PHENYLACETOHYDROXAMIC ACID]: the Stability entry in series [2] and in series [3] was “Unstable” throughout. Also, in series [4], the outcome was inactive. The Activity entry in series [1] was “Dose-dependent effect”. The molecule further displayed an IC50 on Elastase of 13.6 µM.

On to `CCn1ccc(=S)c(O)c1C`, for which the Activity result in series [1] is “Dose-dependent effect”. Besides, on Elastase, the IC50 stood at 88.5 µM.

Consider `O=C(Cc1cccc(F)c1)NO`, for which the Stability result in series [2] and in series [3] was “Unstable” in each case. Further, in series [4], the outcome was inactive. Further, the Activity result in series [1] was “Dose-dependent effect”. At Elastase, this molecule gave an IC50 of 16.4 µM.

Regarding `Cc1c(O)c(=S)ccn1Cc1ccc(-c2ccccc2)cc1`, the Stability result in series [2] and in series [3] was “Stable” in each case. Besides, the outcome in series [4] was Active. Besides, the viability at 25 µM in the series with Pseudomonas aeruginosa stood at 95%. Besides, the IC50 against Elastase stood at 2.73 µM.

`Cc1c(O)c(=S)ccn1Cc1ccc(-c2ccc(F)cc2)cc1` registered an IC50 against Elastase of 4.65 µM.

Turning to `Cc1ccc(-c2ccc(Cn3ccc(=S)c(O)c3C)cc2)cc1`, half-maximal inhibition against Elastase (IC50) required 6.72 µM.
